According to US20230104477A1, “USE OF DEHYDROASCORBIC ACID AGAINST NEMATODE INFECTION IN PLANTS” (Universiteit Gent, priority 2019, published 2023):

Experiments:
[1] = Ascorbate measurements in shoots and roots of foliar sprayed rice; assay type: in vivo, Oryza sativa cv. Nipponbare; conditions: 24 h after foliar application; vs control plants
Procedure: (§1) For foliar application, all chemicals were dissolved in water and 0.02% (v/v) of Tween20 as a surfactant was added prior to spraying on aerial portions of the rice plants. Control plants were sprayed with distilled water containing 0.02% Tween20. Eight plants per treatment were sprayed until run-off with 6.5 mL of solution (at 24 h prior to nematode inoculation, in cases where infected plants were used). The substrate was covered to avoid direct contact with the roots and/or nematodes.
[…] In each assay, 100 mg of crushed material was used per sample, and at least 4 biological replicates were analyzed per treatment. Reduced and oxidized AA were measured according to the method described in Ueda et al., 2013. Absorbance was monitored using a microplate reader (TECAN—Infinite200pro).

sugar beet plants = test: Root and shoot growth in uninfected sugar beet plants after foliar spray; assay type: in vivo, Beta vulgaris cv. Amarok
Procedure: (§2) Sugar beet—seeds of cv. Amarok were germinated on moist tissue for 4-5 days at 25° C. For longer experiments seedlings were transplanted to polyvinyl-chloride (PVC) tubes containing fine soil particles. All experiments were conducted in a plant growth room at 25° C., with a 16/8 h day/night regime. The plants were fertilized by supplying Hoagland solution as a source of nutrients 3 times a week.
(§3) Reduced Ascorbic acid (AA, 20 mM), dehydroascorbic acid (DHA, 20 mM), ascorbate oxidase (AO, 20 U/ml), methyl jasmonate (MeJA, 100 μM), aminooxyacetic acid (AoA, 12.5 mM), diethyldithiocarbamic acid (DIECA, 100 μM) and ethephon (100 μM) were purchased from Sigma and dissolved in water (except MeJA that was first dissolved in a drop of ETOH) to attain the indicated concentration.
as §1

Heterodera schachtii = test: Sugar beet tolerance to beet cyst nematode infection after foliar spray; assay type: in vivo; conditions: 250 H. schachtii per plant
Procedure: as §2
BNC cysts were obtained from Iran and were maintained on sugar beet (cv. Amarok) plants. Cysts were obtained from stock cultures, by washing the infected soil and letting the cysts to float in water. Full cysts with eggs were hand-picked and allowed to dry before setting up for hatching. For second-stage juveniles (J2) to hatch, cysts were placed in 3 mM of […] and transferred to an incubator/shaker at a temperature of 25.5° C. at 70 rpm for 4 days (Kammerhofer et al., 2015). J2 were re-suspended in water and counted under a stereomicroscope. Around 250-300 J2 nematodes were inoculated per plant. One day before and after inoculation, plants were not supplied with any nutrients or water. To investigate the plant tolerance to BCN infection root length, shoot height, fresh root weight as well as the number of cysts were measured at different time points after spraying and/or inoculation. For all experiments, 8 individual plants were used per treatment.
as §3, §1

Turnip mosaic virus = conditions: applied to Brassica rapa plants (Fujiwara et al., 2013); cited from earlier work
[2] = two-week old sugar beet, foliar spray, seven days later, effect not statistically significant
[3] = three-weeks old sugar beet, foliar spray (AA 20 mM, AO 20 U/mL, DHA 20 mM), 4 DAS (3 dai)

With O=C1O[C@H]([C@@H](O)CO)C(=O)C1=O [DHA, (5R)-5-[(1S)-1,2-dihydroxyethyl]furan-2,3,4(5H)-trione] the “amount of DHA in shoots” value [1] was “significantly higher amounts of DHA”, the “total ascorbate level in roots” value [1] was “increased” and the “general appearance of plants” value (sugar beet plants; sugar beet, foliar spray DHA 20 mM, throughout the experiment) was “looked more vigorous”. The root length (sugar beet plants; two-week old sugar beet, foliar spray (DHA 20 mM, AO 20 U/mL), seven days later, vs water control) was “significantly longer roots”, the fresh root weight (sugar beet plants; [2]) was “positively affected” and the shoot length (sugar beet plants; [2]) was “positively affected”. For the same compound, the root system development (Heterodera schachtii; foliar spray DHA 20 mM, 43 DAS, vs control) was “better developed root system”, the number of cysts (Heterodera schachtii; foliar spray DHA 20 mM, 43 DAS, vs untreated plants) was “significantly lower” and the fresh root weight (Heterodera schachtii; foliar spray, 43 DAS (42 days after inoculation), vs control) was “significantly more fresh root weight”. For the same compound, the root length (Heterodera schachtii; [3]) was “significantly increased”, the root weight (Heterodera schachtii; [3]) was “significantly increased” and the shoot weight (Heterodera schachtii; [3]) was “significantly increased”. The shoot height (Heterodera schachtii; three-weeks old sugar beet, foliar spray (AA 20 mM, AO 20 U/mL, DHA 20 mM), 4 DAS (3 dai), DHA effect not statistically significant) was “positively influenced” and the antiviral effect (Turnip mosaic virus) was “antiviral effect”.
